# The source made the active and inactive calls. No cut-off for these calls is given here.
# Experiments:
# [1] = tested on: LNCaP; test: Antitumour activity against human LNCaP cells xenografted in BALB/c nude mouse assessed as increase in karyorrhexis at 15 to 45 mg/kg, po administered daily for 21 days by H and E staining based optical microscopic method; format: functional, organism-based; conditions: dose 15-45 mg/kg, time 21.0 day
# [2] = tested on: LNCaP; test: Antitumour activity against human LNCaP cells xenografted in BALB/c nude mouse assessed as increase in necrosis at 15 to 45 mg/kg, po administered daily for 21 days by H and E staining based optical microscopic method; format: functional, organism-based; conditions: dose 15-45 mg/kg, time 21.0 day
# [3] = Toxicity in ICR mouse assessed as pathological changes in seminal vesicle at 100 to 1000 mg/kg, po administered for 14 days by H and E staining based optical microscopic method; format: organism-based; conditions: in vivo, 336 h, dose 100-1000 mg/kg, time 14 day
# [4] = Stability in human liver microsomes assessed as parent compound remaining at 10 uM; format: ADME, Microsome; conditions: read-out: Stabilty
# [5] = tested on: LNCaP; test: Antitumour activity against human LNCaP cells xenografted in BALB/c nude mouse assessed as decrease in PSA level at 45 mg/kg, po administered daily for 21 days by ELISA relative to control; format: functional; parameters: scale not given: the % may be the effect or the level left; conditions: time 21 day
# [6] = tested on: LNCaP; test: Antitumour activity against human LNCaP cells xenografted in BALB/c nude mouse assessed as reduction in tumour weight at 15 mg/kg, po administered daily for 21 days relative to control; format: functional; conditions: 504 h, time 21 day, read-out: TGI
# [7] = tested on: LNCaP; test: Antitumour activity against human LNCaP cells xenografted in BALB/c nude mouse assessed as reduction in tumour weight at 45 mg/kg, po administered daily for 21 days relative to control; format: functional; conditions: Mus musculus, LNCaP, po, 504 h, time 21 day, read-out: TGI
# [8] = in vitro; conditions: human, liver microsomes
# Description: Intrinsic clearance in human liver microsomes at 10 uM
# [9] = tested on: DU-145; test: Antiproliferative activity against human DU-145 cells assessed as reduction in cel viability after 72 hrs by MTT assay; format: functional, cell-based; conditions: DU-145, 72 h
# [10] = Toxicity in BALB/c mouse xenografted with human LNCaP cells assessed as pathological changes in lung at 15 to 45 mg/kg, po administered daily for 21 days H and E staining based optical microscopic method; format: organism-based; conditions: in vivo, 504 h, dose 15-45 mg/kg, time 21 day
# [11] = Toxicity in BALB/c mouse xenografted with LNCaP cells assessed as reduction in body weight at 15 to 45 mg/kg, po administered daily for 21 days; format: organism-based; conditions: in vivo, 504 h, dose 15-45 mg/kg, time 21 day
# [12] = tested on: LNCaP; test: Antitumour activity against human LNCaP cells xenografted in po dosed BALB/c nude mouse assessed as reduction in tumour volume administered daily for 21 days; format: functional, organism-based; conditions: dose 15-45 mg/kg, time 21.0 day
# [13] = Toxicity in BALB/c mouse xenografted with human LNCaP cells assessed as pathological changes in spleen at 15 to 45 mg/kg, po administered daily for 21 days H and E staining based optical microscopic method; format: organism-based; conditions: in vivo, 504 h, dose 15-45 mg/kg, time 21 day
# [14] = Toxicity in BALB/c mouse xenografted with human LNCaP cells assessed as pathological changes in liver at 15 to 45 mg/kg, po administered daily for 21 days H and E staining based optical microscopic method; format: organism-based; conditions: in vivo, 504 h, dose 15-45 mg/kg, time 21 day
# [15] = Toxicity in BALB/c mouse xenografted with human LNCaP cells assessed as pathological changes in kidney at 15 to 45 mg/kg, po administered daily for 21 days H and E staining based optical microscopic method; format: organism-based; conditions: in vivo, 504 h, dose 15-45 mg/kg, time 21 day
# [16] = tested on: LNCaP; test: Antitumour activity against human LNCaP cells xenografted in po dosed BALB/c nude mouse assessed as decrease in PSA level administered daily for 21 days by ELISA; format: functional, organism-based; conditions: dose 15-45 mg/kg, time 21.0 day
# [17] = Toxicity in ICR mouse assessed as reduction in body weight at 100 to 1000 mg/kg, po administered for 14 days; format: organism-based; conditions: in vivo, 336 h, dose 100-1000 mg/kg, time 14 day
# [18] = Half life in human liver microsomes at 10 uM; format: ADME, Microsome
# [19] = Toxicity in BALB/c mouse xenografted with human LNCaP cells assessed as pathological changes in heart at 15 to 45 mg/kg, po administered daily for 21 days H and E staining based optical microscopic method; format: organism-based; conditions: in vivo, 504 h, dose 15-45 mg/kg, time 21 day
# [20] = tested on: LNCaP; test: Antitumour activity against human LNCaP cells xenografted in BALB/c nude mouse assessed as decrease in PSA level at 15 mg/kg, po administered daily for 21 days by ELISA relative to control; format: functional; parameters: scale not given: the % may be the effect or the level left; conditions: time 21 day
# [21] = tested on: LNCaP; test: Antitumour activity against human LNCaP cells xenografted in po dosed BALB/c nude mouse assessed as reduction in tumour size administered daily for 21 days; format: functional, organism-based; conditions: dose 15-45 mg/kg, time 21.0 day
# [22] = tested on: LNCaP; test: Antiproliferative activity against human LNCaP cells assessed as reduction in cel viability after 72 hrs by MTT assay; format: functional, cell-based
# [23] = target: T1, Androgen receptor (Homo sapiens, UniProt P10275); test: Antagonist activity at Androgen receptor (unknown origin) expressed in COS7 cells by dual luciferase reporter gene assay relative to control; format: cell-based
# T1 sequence (P10275 whole entry): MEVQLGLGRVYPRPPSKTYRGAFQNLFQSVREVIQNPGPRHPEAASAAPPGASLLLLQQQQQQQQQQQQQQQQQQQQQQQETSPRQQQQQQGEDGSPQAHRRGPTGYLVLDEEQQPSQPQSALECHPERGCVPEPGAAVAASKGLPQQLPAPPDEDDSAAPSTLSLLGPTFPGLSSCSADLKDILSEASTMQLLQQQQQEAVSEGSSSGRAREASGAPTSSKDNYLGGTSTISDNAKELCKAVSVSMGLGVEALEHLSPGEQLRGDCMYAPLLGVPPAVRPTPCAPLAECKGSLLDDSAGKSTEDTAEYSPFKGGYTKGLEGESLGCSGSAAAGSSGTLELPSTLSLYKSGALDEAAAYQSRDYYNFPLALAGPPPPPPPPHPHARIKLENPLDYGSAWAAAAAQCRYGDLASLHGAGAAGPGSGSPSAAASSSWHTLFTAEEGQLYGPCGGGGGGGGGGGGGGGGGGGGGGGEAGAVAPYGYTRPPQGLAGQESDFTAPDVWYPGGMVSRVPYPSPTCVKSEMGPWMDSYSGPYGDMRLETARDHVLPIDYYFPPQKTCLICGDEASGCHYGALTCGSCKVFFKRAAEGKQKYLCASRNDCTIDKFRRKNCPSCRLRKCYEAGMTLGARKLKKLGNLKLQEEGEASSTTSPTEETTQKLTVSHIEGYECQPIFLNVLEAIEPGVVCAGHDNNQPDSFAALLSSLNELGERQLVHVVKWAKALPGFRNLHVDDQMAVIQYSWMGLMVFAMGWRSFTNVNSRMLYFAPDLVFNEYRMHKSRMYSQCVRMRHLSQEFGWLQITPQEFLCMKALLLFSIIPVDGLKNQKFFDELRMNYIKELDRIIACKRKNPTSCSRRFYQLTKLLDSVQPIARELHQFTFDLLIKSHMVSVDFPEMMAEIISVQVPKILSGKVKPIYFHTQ
# [24] = tested on: LNCaP; test: Antitumour activity against human LNCaP cells xenografted in BALB/c nude mouse assessed as decrease in PSA level at 30 mg/kg, po administered daily for 21 days by ELISA relative to control; format: functional; parameters: scale not given: the % may be the effect or the level left; conditions: time 21 day
# [25] = Toxicity in ICR mouse assessed as pathological changes in prostate […] at 100 to 1000 mg/kg, po administered for 14 days by H and E staining based optical microscopic method; format: organism-based; conditions: in vivo, 336 h, dose 100-1000 mg/kg, time 14 day
# [26] = tested on: LNCaP; test: Antitumour activity against human LNCaP cells xenografted in BALB/c nude mouse assessed as reduction in tumour weight at 30 mg/kg, po administered daily for 21 days relative to control; format: functional; conditions: 504 h, time 21 day, read-out: TGI
# [27] = tested on: LNCaP; test: Antitumour activity against human LNCaP cells xenografted in po dosed BALB/c nude mouse assessed as reduction in tumour weight administered daily for 21 days; format: functional, organism-based; conditions: dose 15-45 mg/kg, time 21.0 day
smiles,measurement,setting,value
CCOC(=O)Nc1cc2c(cc1F)CC1C(=O)N(c3cnc(C#N)c(C(F)(F)F)c3)C(=S)N1C2 (configuration not stated),Activity,[1],Active
same,Activity,[2],Active
same,Activity,[3],Non-Toxic
same,remaining at 10 µM,[4],87.1%
same,Activity,[5],73%
same,inhibition in vivo at 15 mg/kg,[6],12%
same,inhibition in vivo at 45 mg/kg,[7],79%
same,CLint scaled at 10 µM,[8],7.86 mL/min/kg
same,IC50,[9],94.3 µM
same,Activity,[10],Non-Toxic
same,Activity,[11],Non-Toxic
same,Activity,[12],Dose-dependent effect
same,Activity,[13],Non-Toxic
same,Activity,[14],Non-Toxic
same,Activity,[15],Non-Toxic
same,Activity,[16],Dose-dependent effect
same,Activity,[17],Non-Toxic
same,half-life at 10 µM,[18],4.36 h
same,Activity,[19],Non-Toxic
same,Activity,[20],24%
same,Activity,[21],Dose-dependent effect
same,IC50,[22],14.8 µM
same,IC50,[23],6.17 µM
same,Activity,[24],43%
same,Activity,[25],Non-Toxic
same,inhibition in vivo at 30 mg/kg,[26],39%
same,Activity,[27],Dose-dependent effect
